Legend:
[1] = system: human telomerease (HL60 cell extract); test: Antitelomerease activity: extension of oligonucleotide TS followed by PCR amplification, with HL60 extract; type: biochemical; conditions: read-out: TRAP IC50
Method in brief: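 HL60 CHAPS-lysate extract extends TS primer (15 min, 30 °C) with compound at 10, 1, 0.1 and 0.01 µM, followed by 30-cycle PCR with TS and CXext. Products resolved on 12% acrylamide and quantified; % inhibition versus enzyme control and blank, IC50 read from semilog plot.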

Row | Compound | IC50 [1] [nM] | melting point [°C]
1 | Cc1cc(N(C)C)c2cc(Nc3nc(NCCCN(C)C)nc(Nc4ccc5nc(C)cc(N(C)C)c5c4)n3)ccc2n1 [Example 1, 2,4-bis(4-dimethylamino-2-methylquinolin-6-yl)amino-6-(3-dimethylaminopropyl)amino-[1,3,5]triazine] | 550 | –
2 | Cc1cc(N)c2cc(Nc3nc(Nc4ccc5nc(C)cc(N)c5c4)nc(Nc4ccc5nc(C)cc(N)c5c4)n3)ccc2n1 [Example 2, 2,4,6-tris(4-amino-2-methylquinolin-6-yl)amino-[1,3,5]triazine] | 60 | –
3 | Cc1cc(N)c2cc(Nc3nc(Nc4ccc5nc(C)cc(N(C)C)c5c4)nc(Nc4ccccc4Cl)n3)ccc2n1 [Example 3] | 2100 | –
4 | Cc1cc(N)c2cc(Nc3nc(Nc4ccc(N5CCNCC5)cc4)nc(Nc4ccc5nc(C)cc(N)c5c4)n3)ccc2n1 [Example 15] | 190 | –
5 | Cc1cc(N)c2cc(Nc3nc(Nc4ccc5nc(C)cc(N)c5c4)nc(NC4CN5CCC4CC5)n3)ccc2n1 (centres unmarked) [Example 17, 2,4-bis(4-amino-2-methylquinolin-6-yl)amino-6-(quinuclidin-3-yl)amino-[1,3,5]triazine] | 100 | –
6 | Cc1cc(N(C)C)c2cc(Nc3nc(Nc4ccncc4)nc(Nc4ccc5nc(C)cc(N(C)C)c5c4)n3)ccc2n1 [Example 18] | 1200 | –
7 | Cc1cc(N(C)C)c2cc(Nc3nc(Nc4ccc5nc(C)cc(N(C)C)c5c4)nc(C4CCN(C)CC4)n3)ccc2n1 [Example 19, 2,4-bis(4-dimethylamino-2-methylquinolin-6-yl)amino-6-(1-methylpiperidin-4-yl)-[1,3,5]triazine] | 530 | –
8 | Cc1cc(N(C)C)c2cc(Nc3nc(Nc4ccc5nc(C)cc(N(C)C)c5c4)nc(N4CCN(C)CC4)n3)ccc2n1 [Example 20, 2,4-bis(4-dimethylamino-2-methylquinolin-6-yl)amino-6-(4-methylpiperazin-1-yl)-[1,3,5]triazine] | 440 | 256 to 260
9 | Cc1cc(N(C)C)c2cc(Nc3nc(NCc4ccncc4)nc(Nc4ccc5nc(C)cc(N(C)C)c5c4)n3)ccc2n1 [Example 27, 2,4-bis(4-dimethylamino-2-methylquinolin-6-yl)amino-6-(pyridin-4-yl)methylamino-[1,3,5]triazine] | 600 | –
10 | CCN(CCNc1nc(Nc2ccc3nc(C)cc(N(C)C)c3c2)nc(Nc2ccc3nc(C)cc(N(C)C)c3c2)n1)c1cccc(C)c1 [Example 28] | 900 | –
11 | Cc1cc(N)c2cc(Nc3nc(Nc4ccc5nc(C)cc(N)c5c4)nc(NC4CCN(Cc5ccccc5)C4)n3)ccc2n1 (centres unmarked) [Example 41] | 360 | –
12 | Cc1cc(N)c2cc(Nc3nc(Nc4ccc5nc(C)cc(N)c5c4)nc(N4CCN(C5CCCC5)CC4)n3)ccc2n1 [Example 43] | 180 | –
13 | Cc1cc(N)c2cc(Nc3nc(NCc4ccc([N+](C)(C)C)cc4)nc(Nc4ccc5nc(C)cc(N)c5c4)n3)ccc2n1 [Example 60] | 3000 | –
14 | Cc1cc(N)c2cc(Nc3nc(Nc4ccc5nc(C)cc(N)c5c4)nc(N4CCN(C(=O)c5ccco5)CC4)n3)ccc2n1 [Example 68] | 300 | –
15 | Cc1cc(N)c2cc(Nc3nc(Nc4ccc5nc(C)cc(N)c5c4)nc(N4CCN(C5CCCCCCC5)CC4)n3)ccc2n1 [Example 77] | 480 | –
16 | Cc1cc(N)c2cc(Nc3nc(Nc4ccc5nc(C)cc(N)c5c4)nc(N4CCCC4c4cccnc4)n3)ccc2n1 (centres unmarked) [Example 86] | 200 | –
17 | Cc1cc(N)c2cc(Nc3nc(Nc4ccc5nc(C)cc(N)c5c4)nc(N(Cc4ccccc4)C4CN5CCC4CC5)n3)ccc2n1 (centres unmarked) [Example 92] | 430 | –
18 | Cc1cc(N)c2cc(Nc3nc(Nc4ccc5nc(C)cc(N)c5c4)nc(NC4CCN(Cc5ccccc5)CC4)n3)ccc2n1 [Example 93] | 370 | –
19 | Cc1cc(N)c2cc(Nc3nc(Nc4ccc5nc(C)cc(N)c5c4)nc(Oc4ccccc4Cl)n3)ccc2n1 [Example 103] | 280 | –
20 | COc1cccc(Oc2nc(Nc3ccc4nc(C)cc(N)c4c3)nc(Nc3ccc4nc(C)cc(N)c4c3)n2)c1 [Example 104] | 1200 | –
21 | Cc1cc(N)c2cc(Nc3nc(Nc4ccc5nc(C)cc(N)c5c4)nc(OCCN(C)Cc4ccccc4)n3)ccc2n1 [Example 105] | 240 | –
22 | Cc1cc(N(C)C)c2cc(Nc3nc(Nc4ccc5nc(C)cc(N(C)C)c5c4)nc(Oc4ccncc4)n3)ccc2n1 [Example 115, 2,4-bis(4-dimethylamino-2-methylquinolin-6-yl)amino-6-(pyridin-4-yl)oxy-[1,3,5]triazine] | 500 | –

Row | Compound | IC50 [1] [nM] | melting point [°C]
23 | Cc1cc(N)c2cc(Nc3nc(Nc4ccc5nc(C)cc(N)c5c4)nc(Sc4ccccc4Cl)n3)ccc2n1 [Example 118] | 1400 | –
24 | Cc1cc(N)c2cc(Nc3nc(Nc4ccc5nc(C)cc(N)c5c4)nc(Sc4ccccn4)n3)ccc2n1 [Example 120] | 380 | –
25 | COc1ccc(CSc2nc(Nc3ccc4nc(C)cc(N)c4c3)nc(Nc3ccc4nc(C)cc(N)c4c3)n2)cc1 [Example 124] | 900 | –
26 | Cc1cc(N)c2cc(Nc3nc(Nc4ccc5nc(C)cc(N)c5c4)nc(Sc4ncccn4)n3)ccc2n1 [Example 126] | 670 | –
27 | Cc1cc(C)nc(Sc2nc(Nc3ccc4nc(C)cc(N)c4c3)nc(Nc3ccc4nc(C)cc(N)c4c3)n2)n1 [Example 127] | 840 | –
28 | Cc1cc(N)c2cc(Nc3nc(Nc4ccc5nc(C)cc(N)c5c4)nc(Sc4ccc5ccccc5n4)n3)ccc2n1 [Example 128, 2,4-bis(4-amino-2-methylquinolin-6-yl)amino-6-(quinolin-2-yl)thio-[1,3,5]triazine] | 390 | –
29 | Cc1cc(N(C)C)c2cc(Nc3nc(Nc4ccc5nc(C)cc(N(C)C)c5c4)nc(N4CCCN(C)CC4)n3)ccc2n1 [Example 135, 2,4-bis(4-dimethylamino-2-methylquinolin-6-yl)amino-6-(1-methylhomopiperazin-4-yl)-[1,3,5]triazine] | 400 | –
30 | Cc1cc(N(C)C)c2cc(Nc3nc(Nc4ccc5nc(C)cc(N(C)C)c5c4)nc(N4CCN(CCCN(C)C)CC4)n3)ccc2n1 [Example 136, 2,4-bis(4-dimethylamino-2-methylquinolin-6-yl)amino-6-[1-(3-dimethylaminopropyl)piperazin-4-yl]-[1,3,5]triazine] | 120 | –
31 | CCCN(CCC)CCN1CCN(c2nc(Nc3ccc4nc(C)cc(N(C)C)c4c3)nc(Nc3ccc4nc(C)cc(N(C)C)c4c3)n2)CC1 [Example 137, 2,4-bis(4-dimethylamino-2-methylquinolin-6-yl)amino-6-[1-(2-dipropylaminoethyl)piperazin-4-yl]-[1,3,5]triazine] | 1000 | –
32 | Cc1cc(N(C)C)c2cc(Nc3nc(Nc4ccc5nc(C)cc(N(C)C)c5c4)nc(N(C)C4CCN(C)CC4)n3)ccc2n1 [Example 138, 2,4-bis(4-dimethylamino-2-methylquinolin-6-yl)amino-6-[N-(1-methylpiperidin-4-yl)-N-methylamino]-[1,3,5]triazine] | 500 | –
33 | Cc1cc(N(C)C)c2cc(Nc3nc(Nc4ccc5nc(C)cc(N(C)C)c5c4)nc(N4CCCN(CCCN5CCCC5)CC4)n3)ccc2n1 [Example 139] | 600 | –
34 | Cc1cc(N(C)C)c2cc(Nc3nc(NCCN4CCN(Cc5ccccc5)CC4)nc(Nc4ccc5nc(C)cc(N(C)C)c5c4)n3)ccc2n1 [Example 140] | 1000 | –
35 | Cc1cc(N(C)C)c2cc(Nc3nc(Nc4ccc5nc(C)cc(N(C)C)c5c4)nc(N4CCN(CCOCCO)CC4)n3)ccc2n1 [Example 141, 2,4-bis(4-dimethylamino-2-methylquinolin-6-yl)amino-6-{[1-2-(2-hydroxyethyl)oxyethyl]piperazin-4-yl}-[1,3,5]triazine] | 900 | –
36 | Cc1cc(N(C)C)c2cc(Nc3nc(NCC[N+](C)(C)C)nc(Nc4ccc5nc(C)cc(N(C)C)c5c4)n3)ccc2n1 [Example 142] | 1000 | –
37 | Cc1cc(N(C)C)c2cc(Nc3nc(Nc4ccc5nc(C)cc(N(C)C)c5c4)nc(N4CCN(C5CCCC5)CC4)n3)ccc2n1 [Example 143] | 400 | –
38 | Cc1cc(N(C)C)c2cc(Nc3nc(Nc4ccc5nc(C)cc(N(C)C)c5c4)nc(N4CCN(c5ccncc5)CC4)n3)ccc2n1 [Example 144, 2,4-bis(4-dimethylamino-2-methylquinolin-6-yl)amino-6-[1-(pyridin-4-yl)piperazin-4-yl]-[1,3,5]triazine] | 400 | –
39 | Cc1cc(N(C)C)c2cc(Nc3nc(NCc4ccncc4)nc(Nc4ccc5nc(C)cc(N(C)C)c5c4)n3)ccc2n1 [Example 145] | 1000 | –
40 | CCN(CCN(C)C)c1nc(Nc2ccc3nc(C)cc(N(C)C)c3c2)nc(Nc2ccc3nc(C)cc(N(C)C)c3c2)n1 [Example 146] | 600 | –
41 | CC1=NCCN1c1nc(Nc2ccc3nc(C)cc(N(C)C)c3c2)nc(Nc2ccc3nc(C)cc(N(C)C)c3c2)n1 [Example 148] | 1500 | –
42 | Cc1cc(N(C)C)c2cc(Nc3nc(Nc4ccc5nc(C)cc(N(C)C)c5c4)nc(N4CCC[C@H]4CN4CCCC4)n3)ccc2n1 [Example 149, 2,4-bis(4-dimethylamino-2-methylquinolin-6-yl)amino-6-[2(S)-(pyrrolidin-1-yl)methylpyrrolidin-1-yl]-[1,3,5]triazine] | 2500 | –
43 | CC(=O)NCCNc1nc(Nc2ccc3nc(C)cc(N(C)C)c3c2)nc(Nc2ccc3nc(C)cc(N(C)C)c3c2)n1 [Example 150] | 2500 | –

— US6887873B2, “Triazine derivatives and their application as antitelomerase agents” (Aventis Pharma S.A., priority 2001, dated 2005)
